Reference: US9617240B2 (TEIJIN PHARMA LIMITED, priority 2013, dated 2017)

The molecules below were run against T1, oxidase type xanthine oxidase (derived from buttermilk) (Bos taurus, UniProt P80457) (assay: Xanthine oxidase inhibitory activity (absorbance change at 290 nm)). Details: xanthine substrate, 100 mM phosphate buffer, absorbance at 290 nm for 5 minutes; read-out: Inhibitory Activity (50% inhibitory concentration with respect to oxidase type xanthine oxidase).
T1 construct: oxidase type xanthine oxidase (derived from buttermilk, supplied by Calbiochem Novabiochem Corp.); purchased Calbiochem Novabiochem Corp; host or cells: buttermilk (natural source)
T1 sequence (P80457 whole entry): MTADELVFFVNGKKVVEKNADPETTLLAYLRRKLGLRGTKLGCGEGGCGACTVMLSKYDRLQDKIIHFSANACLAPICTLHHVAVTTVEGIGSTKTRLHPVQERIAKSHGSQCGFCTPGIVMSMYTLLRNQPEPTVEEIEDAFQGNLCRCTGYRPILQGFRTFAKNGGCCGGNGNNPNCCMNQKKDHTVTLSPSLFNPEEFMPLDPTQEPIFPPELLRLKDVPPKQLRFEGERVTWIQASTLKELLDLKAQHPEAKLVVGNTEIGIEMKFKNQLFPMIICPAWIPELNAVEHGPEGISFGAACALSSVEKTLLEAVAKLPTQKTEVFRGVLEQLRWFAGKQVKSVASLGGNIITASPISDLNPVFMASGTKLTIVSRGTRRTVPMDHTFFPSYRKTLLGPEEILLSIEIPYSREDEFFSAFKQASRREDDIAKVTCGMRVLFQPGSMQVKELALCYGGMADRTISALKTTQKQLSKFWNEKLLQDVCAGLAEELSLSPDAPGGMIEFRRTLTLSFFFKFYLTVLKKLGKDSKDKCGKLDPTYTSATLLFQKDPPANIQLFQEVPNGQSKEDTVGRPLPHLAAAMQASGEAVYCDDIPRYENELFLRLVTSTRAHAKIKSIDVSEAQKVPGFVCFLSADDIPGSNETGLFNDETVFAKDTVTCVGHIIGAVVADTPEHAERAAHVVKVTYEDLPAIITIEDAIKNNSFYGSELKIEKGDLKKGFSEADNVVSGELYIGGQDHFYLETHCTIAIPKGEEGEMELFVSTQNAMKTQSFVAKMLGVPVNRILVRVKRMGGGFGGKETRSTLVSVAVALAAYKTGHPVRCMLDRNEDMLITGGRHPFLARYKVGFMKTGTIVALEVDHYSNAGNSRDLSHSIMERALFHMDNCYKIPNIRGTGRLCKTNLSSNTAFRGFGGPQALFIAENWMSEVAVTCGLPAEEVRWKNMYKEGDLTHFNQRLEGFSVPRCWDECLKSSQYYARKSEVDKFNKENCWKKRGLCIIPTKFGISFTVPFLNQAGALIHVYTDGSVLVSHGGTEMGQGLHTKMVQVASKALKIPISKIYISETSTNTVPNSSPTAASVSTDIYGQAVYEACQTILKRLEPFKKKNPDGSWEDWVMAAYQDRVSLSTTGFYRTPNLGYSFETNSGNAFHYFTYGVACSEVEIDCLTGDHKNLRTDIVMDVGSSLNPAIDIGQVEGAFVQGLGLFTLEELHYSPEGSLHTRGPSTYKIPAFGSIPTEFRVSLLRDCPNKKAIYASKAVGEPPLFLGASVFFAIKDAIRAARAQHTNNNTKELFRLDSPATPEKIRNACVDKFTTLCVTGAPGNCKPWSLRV
Type: biochemical
Procedure: The xanthine oxidase inhibitory activity was measured for the compounds synthesized according to the above Examples.
After a test compound was dissolved in DMSO (manufactured by Sigma Co.) so that the concentration is 20 mM, the test compound was prepared and used at a desired concentration at the time of use.
The evaluation of the xanthine oxidase inhibitory activity of the compounds of the present invention was conducted by partially modifying the method described in the literature (Method Enzymatic Analysis, 1, 521-522, 1974). The present evaluation is based on the oxidase type xanthine oxidase inhibitory activity evaluation. That is, a xanthine (manufactured by Sigma Co.) solution prepared at 10 mM in advance using a 20 mM sodium hydroxide solution was adjusted to 30 μM using a 100 mM phosphate buffer solution, and 75 μL/well of each solution was added into a 96-well plate. Aliquots (1.5 μL/well) of each test sample, which was diluted with DMSO so that the concentration is 100 times the final concentration, were added into a 96-well plate, and after mixing, the absorbance at 290 nm was measured by a microplate reader SPECTRA MAX Plus 384 (manufactured by Molecular Devices, LLC). Subsequently, oxidase type xanthine oxidase (derived from buttermilk, supplied by Calbiochem Novabiochem Corp.) was prepared at 30.6 mU/mL using a 100 mM phosphate buffer solution and 73.5 μL/well of each solution was added. Immediately after mixing, the change in absorbance at 290 nm was measured for 5 minutes. The enzyme activity when DMSO was used instead of a test compound solution was defined as 100%, the inhibitory rate of the test compounds was calculated and the 50% inhibitory concentration with respect to oxidase type xanthine oxidase was calculated by fitting to the dose-response curve.
Note that the symbols (+, ++, +++) in the table represent inhibitory activity values as shown below.

Row | Molecule | IC50 [nM]
1 | Cc1cccc(-c2cnc(-n3cc(C(=O)O)cn3)cc2C#N)c1C [Compound 38, 1-[4-cyano-5-(2,3-dimethylphenyl)pyridin-2-yl]-1H-pyrazole-4-carboxylic acid] | 1 to 5
2 | COc1cccc(-c2cnc(-n3cc(C(=O)O)cn3)cc2C#N)c1 [Compound 13, 1-[4-cyano-5-(3-methoxyphenyl)pyridin-2-yl]-1H-pyrazole-4-carboxylic acid] | 1 to 5
3 | N#Cc1cc(-n2cc(C(=O)O)cn2)ncc1-c1cccc(Cl)c1 [Compound 12, 1-[4-cyano-5-(3-chlorophenyl)pyridin-2-yl]-1H-pyrazole-4-carboxylic acid] | 5 to 10
4 | N#Cc1cc(-n2cc(C(=O)O)cn2)ncc1-c1ccccc1C(F)(F)F [Compound 8, 1-{4-cyano-5-[2-(trifluoromethyl)phenyl]pyridin-2-yl}-1H-pyrazole-4-carboxylic acid] | ≥ 10
5 | N#Cc1cc(-n2cc(C(=O)O)cn2)ncc1-c1ccncc1 [Compound 62, 1-[4-cyano-5-(pyridin-4-yl)pyridin-2-yl]-1H-pyrazole-4-carboxylic acid] | ≥ 10
6 | N#Cc1cc(-n2cc(C(=O)O)cn2)ncc1-c1ccc(O)cc1 [Compound 16, 1-[4-cyano-5-(4-hydroxyphenyl)pyridin-2-yl]-1H-pyrazole-4-carboxylic acid] | 1 to 5
7 | N#Cc1cc(-n2cc(C(=O)O)cn2)ncc1-c1ccccc1OC(F)(F)F [Compound 9, 1-{4-cyano-5-[2-(trifluoromethoxy)phenyl]pyridin-2-yl]-1H-pyrazole-4-carboxylic acid] | ≥ 10
8 | Cc1ccc(F)c(-c2cnc(-n3cc(C(=O)O)cn3)cc2C#N)c1 [Compound 34, 1-[4-cyano-5-(2-fluoro-5-methylphenyl)pyridin-2-yl]-1H-pyrazole-4-carboxylic acid] | 1 to 5
9 | CC(C)COc1cccc(-c2cnc(-n3cc(C(=O)O)cn3)cc2C#N)c1 [Compound 56] | 5 to 10
10 | Cc1cc(-c2ncc(-n3cc(C(=O)O)cn3)cc2C#N)ccc1F [Compound 82, 1-[5-cyano-6-(4-fluoro-3-methylphenyl)pyridin-3-yl]-1H-pyrazole-4-carboxyic acid] | ≥ 10
11 | Cc1cc(-c2ccc(-n3cc(C(=O)O)cn3)nc2C#N)ccc1F [Compound 94, 1-[6-cyano-5-(4-fluoro-3-methylphenyl)pyridin-2-yl]-1H-pyrazole-4-carboxylic acid] | ≥ 10
12 | Cc1ccc(-c2cnc(-n3cc(C(=O)O)c(N)n3)cc2C#N)c(F)c1 [Compound 103, 3-amino-1-[4-cyano-5-(2-fluoro-4-methylphenyl)pyridin-2-yl]-1H-pyrazole-4-carboxylic acid] | 1 to 5
13 | Cc1cccc(-c2cnc(-n3cc(C(=O)O)cn3)cc2C#N)c1 [Compound 10, 1-[4-cyano-5-(3-methylphenyl)pyridin-2-yl]-1H-pyrazole-4-carboxylic acid] | 1 to 5
14 | COc1cc(F)ccc1-c1cnc(-n2cc(C(=O)O)cn2)cc1C#N [Compound 50, 1-[4-cyano-5-(4-fluoro-2-methoxyphenyl)pyridin-2-yl]-1H-pyrazole-4-carboxylic acid] | 1 to 5
15 | N#Cc1cc(-n2cc(C(=O)O)cn2)ncc1-c1ccc(F)cc1 [Compound 29, 1-[4-cyano-5-(4-fluorophenyl)pyridin-2-yl]-1H-pyrazole-4-carboxylic acid] | 1 to 5
16 | N#Cc1cc(-n2cc(C(=O)O)cn2)ncc1-c1ccsc1 [Compound 21, 1-[4-cyano-5-(thiophen-3-yl)pyridin-2-yl]-1H-pyrazole-4-carboxylic acid] | 1 to 5
17 | 1-[5-(4-acetophenyl)-4-cyanopyridin-2-yl]-1H-pyrazole-4-carboxylic acid [Compound 71] | 1 to 5
18 | N#Cc1cc(-n2cc(C(=O)O)cn2)ncc1-c1ccccc1F [Compound 5, 1-[4-cyano-5-(2-fluorophenyl)pyridin-2-yl]-1H-pyrazole-4-carboxylic acid] | 1 to 5
19 | N#Cc1cc(-n2cc(C(=O)O)cn2)ncc1-c1csc2ccccc12 [Compound 61, 1-[5-(1-benzothiophen-3-yl)-4-cyanopyridin-2-yl]-1H-pyrazole-4-carboxylic acid] | 1 to 5
20 | Cc1ccc(F)c(-c2ccc(-n3cc(C(=O)O)cn3)nc2C#N)c1 [Compound 88, 1-[6-cyano-5-(2-fluoro-5-methylphenyl)pyridin-2-yl]-1H-pyrazole-4-carboxylic acid] | ≥ 10

Row | Molecule | IC50 [nM]
21 | N#Cc1cc(-n2cc(C(=O)O)cn2)cnc1-c1cc(F)ccc1F [Compound 80, 1-[5-cyano-6-(2,5-difluorophenyl)pyridin-3-yl]-1H-pyrazole-4-carboxylic acid] | ≥ 10
22 | CN(C)c1ccc(-c2cnc(-n3cc(C(=O)O)cn3)cc2C#N)cn1 [Compound 59, 1-{4-cyano-5-[6-(dimethylamino)pyridin-3-yl]pyridin-2-yl}-1H-pyrazole-4-carboxylic acid] | 1 to 5
23 | CCOc1ccccc1-c1cnc(-n2cc(C(=O)O)cn2)cc1C#N [Compound 3, 1-[4-cyano-5-(2-ethoxyphenyl)pyridin-2-yl]-1H-pyrazole-4-carboxylic acid] | 5 to 10
24 | N#Cc1cc(-n2cc(C(=O)O)cn2)ncc1-c1cccc(OC(F)F)c1 [Compound 46, 1-{4-cyano-5-[3-(difluoromethoxy)phenyl]pyridin-2-yl}-1H-pyrazole-4-carboxylic acid] | 5 to 10
25 | N#Cc1cc(-n2cc(C(=O)O)cn2)ncc1-c1ccc(C(F)(F)F)cc1 [Compound 43, 1-{4-cyano-5-[4-(trifluoromethyl)phenyl]pyridin-2-yl}-1H-pyrazole-4-carboxylic acid] | 1 to 5
26 | N#Cc1cc(-n2cc(C(=O)O)cn2)ncc1-c1ccc(C(=O)O)cc1 [Compound 42, 1-[5-(4-carboxyphenyl)-4-cyanopyridin-2-yl]-1H-pyrazole-4-carboxylic acid] | 1 to 5
27 | Cc1cc(-c2cnc(-n3cc(C(=O)O)c(N)n3)cc2C#N)ccc1F [Compound 106, 3-amino-1-[4-cyano-5-(4-fluoro-3-methylphenyl)pyridin-2-yl]-1H-pyrazole-4-carboxylic acid] | 1 to 5
28 | N#Cc1cc(-n2cc(C(=O)O)cn2)ncc1-c1cccc(Cl)c1F [Compound 41, 1-[4-cyano-5-(3-chloro-2-fluorophenyl)pyridin-2-yl]-1H-pyrazole-4-carboxylic acid] | 1 to 5
29 | Cc1cc(F)ccc1-c1cnc(-n2cc(C(=O)O)cn2)cc1C#N [Compound 49, 1-[4-cyano-5-(4-fluoro-2-methylphenyl)pyridin-2-yl]-1H-pyrazole-4-carboxylic acid] | ≥ 10
30 | Cc1cc(-c2cnc(-n3cc(C(=O)O)cn3)cc2C#N)ccc1F [Compound 37, 1-[4-cyano-5-(4-fluoro-3-methylphenyl)pyridin-2-yl]-1H-pyrazole-4-carboxylic acid] | 1 to 5
31 | N#Cc1cc(-n2cc(C(=O)O)c(N)n2)ncc1-c1ccccc1 [Compound 97, 3-amino-1-(4-cyano-5-phenylpyridin-2-yl)-1H-pyrazole-4-carboxylic acid] | 1 to 5
32 | N#Cc1nc(-n2cc(C(=O)O)cn2)ccc1-c1c(F)cccc1F [Compound 95, 1-[6-cyano-5-(2,6-difluorophenyl)pyridin-2-yl]-1H-pyrazole-4-carboxylic acid] | 5 to 10
33 | COc1ccncc1-c1cnc(-n2cc(C(=O)O)cn2)cc1C#N [Compound 58, 1-[4-cyano-5-(4-methoxypyridin-3-yl)pyridin-2-yl]-1H-pyrazole-4-carboxylic acid] | ≥ 10
34 | CC(C)c1nn(-c2cc(C#N)c(-c3ccccc3)cn2)cc1C(=O)O [Compound 27, 1-(4-cyano-5-phenylpyridin-2-yl)-3-(propan-2-yl)-1H-pyrazole-4-carboxylic acid] | ≥ 10
35 | N#Cc1cc(-n2cc(C(=O)O)cn2)ncc1-c1cccc(F)c1 [Compound 11, 1-[4-cyano-5-(3-fluorophenyl)pyridin-2-yl]-1H-pyrazole-4-carboxylic acid] | 5 to 10
36 | COc1cccc(-c2cnc(-n3cc(C(=O)O)c(N)n3)cc2C#N)c1 [Compound 102, 3-amino-1-[4-cyano-5-(3-methoxyphenyl)pyridin-2-yl]-1H-pyrazole-4-carboxylic acid] | 1 to 5
37 | Cc1ccc(-c2cnc(-n3cc(C(=O)O)cn3)cc2C#N)c(F)c1 [Compound 33, 1-[4-cyano-5-(2-fluoro-4-methylphenyl)pyridin-2-yl]-1H-pyrazole-4-carboxylic acid] | 1 to 5
38 | COc1cnccc1-c1cnc(-n2cc(C(=O)O)cn2)cc1C#N [Compound 24, 1-[4-cyano-5-(3-methoxypyridin-4-yl)pyridin-2-yl]-1H-pyrazole-4-carboxylic acid] | ≥ 10
39 | Cc1nn(-c2cc(C#N)c(-c3ccccc3)cn2)cc1C(=O)O [Compound 26, 1-(4-cyano-5-phenylpyridin-2-yl)-3-methyl-1H-pyrazole-4-carboxylic acid] | ≥ 10
